Measured values as given in article PMC4004541, “PEG-Like Nanoprobes: Multimodal, Pharmacokinetically and Optically Tunable Nanomaterials” (PLoS ONE, 2014).

System: mCherry expressing HT-29 tumor
Assay: Intravital two photon microscopy of mCherry expressing HT-29 tumor in dorsal skinfold chamber
Assay type: in vivo, nude mice
Conditions: 10 nmoles IV
Excerpt: A feature of PN design is that the fluorochrome can be selected to optimize optical properties for different applications. To image the vascular pharmacokinetic phase with two photon microscopy, PN(497)10.0 was used because its fluorescein is readily excited in the two photon mode. […] To further examine the vascular and interstitial phases, a dorsal skinfold chamber was used for the intravital, two photon microscopy of a mCherry expressing HT-29 tumor ( Figure 5B ).
Dorsal skinfold chamber (DSFC) tumors were grown in female nude mice (nu/nu; 25–30 g; 6–8 weeks old) with modifications from previously published techniques, [35]. 10^6 mCherry-HT-29 tumor cells in matrixgel (BD) were subcutaneously injected in the back of mice ∼1.5 cm left of the dorsal midline approximately halfway from the neck to the tail base. […] On days 2, 3, and 4 days after tumor DSFC implantation, when tumors were typically 3 mm in diameter, image stacks of tumor tissue were recorded under general anesthesia with Ketamine and Xylazine. […]
Multiphoton excitation was obtained through DeepSee and MaiTai Ti:sapphire lasers (Newport/Spectra-Physics) tuned to 920 and 1000 nm to excite all fluorescent probes used. […] Emitted fluorescence was detected through 460/50, 525/50, 595/50, 660/40 band-pass filters and non-descanned detectors to generate four-color images. […]

(DOTA)Lys(PEG 30 kDa)-Cys(Fl) [PN(497)10.0, PEG-like Nanoprobe: 30 kDa PEG, fluorescein, DOTA peptide]
Localisation by intravital microscopy, interstitial phase (20 h post-injection): seen in the interstitium at the tumor periphery
Localisation by intravital microscopy, vascular phase (ten minutes post-injection): confined to the vasculature
